Test results as given in BindingDB's records for doi:10.1016/0167-0115(94)90537-1 (Universit&Eacute, 1994).
Peptide text beside a SMILES is read from it.

Biological target: T1, VIP peptides (Rattus norvegicus, UniProt P01283)
T1 sequence (P01283 whole entry): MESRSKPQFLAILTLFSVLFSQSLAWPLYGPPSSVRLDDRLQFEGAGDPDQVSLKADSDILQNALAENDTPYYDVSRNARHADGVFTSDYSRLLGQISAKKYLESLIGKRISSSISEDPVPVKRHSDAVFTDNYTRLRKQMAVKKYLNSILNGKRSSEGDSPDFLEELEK

Row | SMILES | Ki
1 | CC[C@H](C)[C@H](NC(=O)CNC(=O)[C@H](CC(=O)O)NC(=O)[C@H](CO)NC(=O)[C@@H](N)Cc1cnc[nH]1)C(=O)N[C@@H](Cc1ccccc1)C(=O)N[C@H](C(=O)N[C@@H](CC(=O)O)C(=O)N[C@@H](CO)C(=O)N[C@@H](Cc1ccc(O)cc1)C(=O)N[C@@H](CO)C(=O)N[C@@H](CCCNC(=N)N)C(=O)N[C@@H](Cc1ccc(O)cc1)C(=O)N[C@@H](CCCNC(=N)N)C(=O)N[C@@H](CCCCN)C(=O)N[C@@H](CCC(N)=O)C(=O)N[C@@H](CCSC)C(=O)N[C@@H](C)C(=O)N[C@H](C(=O)N[C@@H](CCCCN)C(=O)N[C@@H](CCCCN)C(=O)N[C@@H](Cc1ccc(O)cc1)C(=O)N[C@@H](CC(C)C)C(=O)N[C@@H](C)C(=O)N[C@@H](C)C(=O)N[C@H](C(=O)N[C@@H](CC(C)C)C(=O)NCC(=O)N[C@@H](CCCCN)C(=O)N[C@@H](CCCNC(=N)N)C(=O)N[C@@H](Cc1ccc(O)cc1)C(=O)N[C@@H](CCCCN)C(=O)N[C@@H](CCC(N)=O)C(=O)N[C@@H](CCCNC(=N)N)C(=O)N[C@H](C(=O)N[C@@H](CCCCN)C(=O)N[C@@H](CC(N)=O)C(=O)N[C@@H](CCCCN)C(N)=O)C(C)C)C(C)C)C(C)C)[C@@H](C)O [PACAP] | 2 nM
2 | CC[C@H](C)[C@H](NC(=O)[C@H](CO)NC(=O)[C@H](CC(N)=O)NC(=O)[C@H](CC(C)C)NC(=O)[C@H](Cc1ccc(O)cc1)NC(=O)[C@H](CCCCN)NC(=O)[C@H](CCCCN)NC(=O)[C@@H](NC(=O)[C@H](C)NC(=O)[C@H](CCSC)NC(=O)[C@H](CCC(N)=O)NC(=O)[C@H](CCCCN)NC(=O)[C@H](CCCN=C(N)N)NC(=O)[C@H](CC(C)C)NC(=O)[C@H](CCCN=C(N)N)NC(=O)[C@@H](NC(=O)[C@H](Cc1ccc(O)cc1)NC(=O)[C@H](CC(N)=O)NC(=O)[C@H](CC(=O)O)NC(=O)[C@@H](NC(=O)[C@H](Cc1ccccc1)NC(=O)[C@@H](NC(=O)[C@H](C)NC(=O)[C@H](CC(=O)O)NC(=O)[C@H](CO)NC(=O)[C@H](N)Cc1cnc[nH]1)C(C)C)[C@@H](C)O)[C@@H](C)O)C(C)C)C(=O)N[C@@H](CC(C)C)C(=O)N[C@@H](CC(N)=O)C(N)=O [VIP [D-His1]] | 200 nM
3 | CC[C@H](C)[C@H](NC(=O)[C@H](CO)NC(=O)[C@H](CC(N)=O)NC(=O)[C@H](CC(C)C)NC(=O)[C@H](Cc1ccc(O)cc1)NC(=O)[C@H](CCCCN)NC(=O)[C@H](CCCCN)NC(=O)[C@@H](NC(=O)[C@H](C)NC(=O)[C@H](CCSC)NC(=O)[C@H](CCC(N)=O)NC(=O)[C@H](CCCCN)NC(=O)[C@H](CCCN=C(N)N)NC(=O)[C@H](CC(C)C)NC(=O)[C@H](CCCN=C(N)N)NC(=O)[C@@H](NC(=O)[C@H](Cc1ccc(O)cc1)NC(=O)[C@H](CC(N)=O)NC(=O)[C@H](CC(=O)O)NC(=O)[C@@H](NC(=O)[C@H](Cc1ccccc1)NC(=O)[C@@H](NC(=O)[C@H](C)NC(=O)[C@H](CC(=O)O)NC(=O)[C@@H](N)CO)C(C)C)[C@@H](C)O)[C@@H](C)O)C(C)C)C(=O)N[C@@H](CC(C)C)C(=O)N[C@@H](CC(N)=O)C(N)=O [VIP(2-28)] (H-SDAVFTDNYTRLRKQMAVKKYLNSILN-NH2) | 200 nM
4 | CC[C@H](C)[C@H](NC(=O)[C@H](CO)NC(=O)[C@H](CC(N)=O)NC(=O)[C@H](CC(C)C)NC(=O)[C@H](Cc1ccc(O)cc1)NC(=O)[C@H](CCCCN)NC(=O)[C@H](CCCCN)NC(=O)[C@@H](NC(=O)[C@H](C)NC(=O)[C@H](CCSC)NC(=O)[C@H](CCC(N)=O)NC(=O)[C@H](CCCCN)NC(=O)[C@H](CCCN=C(N)N)NC(=O)[C@H](CC(C)C)NC(=O)[C@H](CCCN=C(N)N)NC(=O)[C@@H](NC(=O)[C@H](Cc1ccc(O)cc1)NC(=O)[C@H](CC(N)=O)NC(=O)[C@H](CC(=O)O)NC(=O)[C@@H](NC(=O)[C@H](Cc1ccccc1)NC(=O)[C@@H](NC(=O)[C@H](C)NC(=O)[C@@H](N)CC(=O)O)C(C)C)[C@@H](C)O)[C@@H](C)O)C(C)C)C(=O)N[C@@H](CC(C)C)C(=O)N[C@@H](CC(N)=O)C(N)=O [VIP(3-28)] (H-DAVFTDNYTRLRKQMAVKKYLNSILN-NH2) | 3000 nM
5 | CC[C@H](C)[C@H](NC(=O)CNC(=O)[C@H](CC(=O)O)NC(=O)[C@H](CO)NC(=O)[C@@H](N)Cc1ccccc1)C(=O)N[C@@H](Cc1ccccc1)C(=O)N[C@H](C(=O)N[C@@H](CC(=O)O)C(=O)N[C@@H](CO)C(=O)N[C@@H](Cc1ccc(O)cc1)C(=O)N[C@@H](CO)C(=O)N[C@@H](CCCN=C(N)N)C(=O)N[C@@H](Cc1ccc(O)cc1)C(=O)N[C@@H](CCCN=C(N)N)C(=O)N[C@@H](CCCCN)C(=O)N[C@@H](CCC(N)=O)C(=O)N[C@@H](CCSC)C(=O)N[C@@H](C)C(=O)N[C@H](C(=O)N[C@@H](CCCCN)C(=O)N[C@@H](CCCCN)C(=O)N[C@@H](Cc1ccc(O)cc1)C(=O)N[C@@H](CC(C)C)C(=O)N[C@@H](C)C(=O)N[C@@H](C)C(=O)N[C@H](C(=O)N[C@@H](CC(C)C)C(N)=O)C(C)C)C(C)C)[C@@H](C)O [[Phe1]PACAP(1-27)] | 300 nM
6 | CC[C@H](C)[C@H](NC(=O)[C@H](CO)NC(=O)[C@H](CC(N)=O)NC(=O)[C@H](CC(C)C)NC(=O)[C@H](Cc1ccc(O)cc1)NC(=O)[C@H](CCCCN)NC(=O)[C@H](CCCCN)NC(=O)[C@@H](NC(=O)[C@H](C)NC(=O)[C@H](CCSC)NC(=O)[C@H](CCC(N)=O)NC(=O)[C@H](CCCCN)NC(=O)[C@H](CCCN=C(N)N)NC(=O)[C@H](CC(C)C)NC(=O)[C@H](CCCN=C(N)N)NC(=O)[C@@H](NC(=O)[C@H](Cc1ccc(O)cc1)NC(=O)[C@H](CC(N)=O)NC(=O)[C@H](CC(=O)O)NC(=O)[C@@H](NC(=O)[C@H](Cc1ccccc1)NC(=O)[C@@H](NC(=O)[C@H](C)NC(=O)[C@H](CC(=O)O)NC(=O)[C@H](CO)NC(=O)[C@@H](N)Cc1ccccc1)C(C)C)[C@@H](C)O)[C@@H](C)O)C(C)C)C(=O)N[C@@H](CC(C)C)C(=O)N[C@@H](CC(N)=O)C(N)=O [[Phe1]VIP] (H-FSDAVFTDNYTRLRKQMAVKKYLNSILN-NH2) | 30 nM
